Data published in US6740497B2, “Method and apparatus for detecting cancerous cells using molecules that change electrophoretic mobility” (The Regents of the University of California, priority 1998, dated 2004).
Peptide text beside a SMILES is read from it. * marks the point of attachment. 5FAM = O=C1OC2(c3ccc(O)cc3Oc3cc(O)ccc32)c2ccc(C(=O)*)cc21

Key:
[1] = test system: protein kinase C (PKC); test: Intracellular Fl-sPKC phosphorylation by PKC in single Xenopus laevis oocytes (PERT CE sampling, MEKC); type: cell-based
Protocol: Oocytes 46′ were surgically obtained from pigmented or albino Xenopus laevis frogs and were cultured as described previously. Oocytes 46′ were microinjected by means of an injector mounted on a low power dissecting microscope (not shown) with 50 nl of reporter substrate peptide (0.5-200 μM) in buffer B, and then incubated for 30 min to permit diffusion of the peptide through the oocyte 46′. For measurements, oocytes 46′ were placed in buffer C (96 mM NaCl, 2 mM KCl, 1.8 mM CaCl2, 1 mM MgCl2, 5 mM Hepes, pH 7.6). When LPA (1-oleoyl-2-hydroxy-sn-glycero-3-phosphate, Avanti Polar Lipids, Alabaster, Ala.) was added to the oocytes 46′, fatty acid-free bovine serum albumen (5%) was used as a carrier as described previously.
All samples from the oocytes 46′ were obtained and electrophoresed by a method referred to as piezoelectric sampling/rapid translation/capillary electrophoresis (PERT CE). The apparatus used for PERT CE is illustrated in FIGS. 8A-B. FIGS. 8A and 8B are diagrammatic depictions of the components of the apparatus used to make measurements of intracellular enzyme activity from single Xenopus laevis oocytes 46′. […] The holder is part of a complete apparatus for automatically sampling oocyte cytoplasm and rapidly subjecting this sample to electrophoresis before any substantial change in the substrate molecules can occur. This is achieved by providing a sharpened electrophoresis capillary 22 attached to a high speed translation system to plunge the capillary into the cell to capture a plug of cytoplasm. Then the capillary is automatically withdrawn from the oocyte and rapidly moved to make electrical contact with a reservoir 134 of electrophoresis buffer so that electrophoresis of the substrate molecules within the “plug” commences before any additional chemical reactions occur.
To obtain cytoplasm, the capillary 22 was driven 60 μm into the oocyte 46′ by the piezoelectric element. […] The capillary 22 was then automatically withdrawn from the cytoplasm. […] Electrophoresis was initiated immediately. […]

[2] = test system: protein kinase C (PKC); test: Net intracellular PKC activity in single RBL cells: microinjected Fl-sPKC reporter, laser lysis, capillary electrophoresis, laser-induced fluorescence; type: cell-based, rat; conditions: RBL cell
Protocol: FIGS. 2A-C and 3A-C are two sets of graphs of three stacked electrophoretograms of reporter substrate molecule separations all made under identical electrophoretic conditions on the same day. In the first embodiment, illustrated by FIGS. 2A-C and FIGS. 3A-C, rat basophilic leukemia (RBL) cells, from the tumor mast cell line RBL-2H3, were used. These cells were grown at 37° C. and 5% CO2 in Dulbecco's modified eagle medium (DMEM) supplemented with 10% fetal bovine serum, and L-glutamine ([…]). Penicillin (100 units/ml) and streptomycin (100 μg/ml) were added to the media to inhibit bacterial growth. […] The cells 46 were plated at concentrations determined empirically to produce approximately one cell per 100× field of view on the day of the measurement. […]
In the first embodiment, the microscopy system of FIG. 9 used for cell lysis was similar to that described previously in the incorporated application entitled “Fast Controllable Laser Lysis of Cells for Analysis”. The frequency-doubled Q-switched Nd:YAG laser 18 (Minilite II, Continuum, Santa Clara, Calif.; Minilase II-20, New Wave Research, Sunnyvale, Calif.) was used to generate a single pulse (1-25 μJ, 5-ns pulse width, 532 nm) directed into a fluorescence microscope 12 (Axiovert 135, Zeiss, Thornwood, N.Y.). […]

[3] = test system: protein kinase C (PKC); test: Time course of intracellular Fl-sPKC phosphorylation by PKC in single NIH/3T3 cells (laser lysis, capillary electrophoresis); type: cell-based, murine; conditions: 100 nM PMA, 5 minute time point, room temperature, FIG. 12
[4] = test system: RBL cell; test: Intracellular side reactions (degradation/modification) of the Fl-sPKC reporter in a microinjected RBL cell; type: cell-based, rat; conditions: 200 μM Pefabloc present, with or without PMA, FIGS. 2B and 2C
Protocol: In the measurements illustrated by FIG. 2A-C, prior to mounting on the microscope stage for microinjection and analysis at room temperature (20°-23° C.), each cell chamber 199 was treated by addition of 10 μl of 10 mM Pefabloc (Boehringer-Mannheim, Indianapolis, Ind.) in buffer A with gentle manually pipetted mixing using a Pipetman® (Rainin, Woburn, Mass.).
This yielded a final Pefabloc concentration of 200 μM. Pefabloc is a soluble, physiologically tolerated, inhibitor of serine proteases, a subset of intracellular enzymes that tend to degrade peptides. Pefabloc was included to minimize intracellular degradation of Fl-sPKC. […]
In the measurements illustrated by FIGS. 2A-C, Fl-sPKC was diluted in buffer B, a physiologically compatible intracellular buffer composed of 10 mM Hepes and 140 mM KCl, at pH 7.4. […] The cells 46 that had been successfully microinjected were identified by visual observation of internal Calcium Orange epi-fluorescence through a set of TRITC filters (Chroma Technology Corp., Brattleboro, Vt.) (not shown, but included in the microscope 12) to minimize photodestruction of the fluorescein moiety on Fl-sPKC. […]
Clearly activation of an intracellular kinase by a potent pharmacologic activator can be measured by this approach. Furthermore, both electrophoretograms in FIGS. 2B and 2C show the presence of peaks that cannot be readily identified. […]

SMILES | collected fluorescence corresponding to P-Fl-sPKC ([1]; Xenopus oocyte, 10 μM PMA for 10 minutes, ~10 μM reporter substrate, FIG. 4D) | degree of reporter substrate phosphorylation ([1]; Xenopus oocyte, 10 μM PMA for three minutes, FIG. 5) | average rate of Fl-sPKC phosphorylation within oocytes ([1]; Xenopus oocytes, 10 μM activator, intermediate time points, FIGS. 6A/6B) [nM/s] | Fl-sPKC peak versus P-Fl-sPKC peak (net PKC activity) ([2]; 100 nM PMA, 5 minutes, FIG. 2C) | PKC activation (peaks matching P-Fl-sPKC) ([2]; 1 μM PMA for 10 minutes before microinjection of Fl-sPKC and Fl-sPKA, FIG. 11C) | phosphorylation level of Fl-sPKC [3] [%] | side products as share of collected fluorescence [4]
CCCCCCCCCCCCCC(=O)O[C@@H]1[C@@H](C)[C@@]2(O)[C@@H](C=C(CO)C[C@]3(O)C(=O)C(C)=C[C@@H]23)[C@@H]2C(C)(C)[C@]12OC(C)=O [PMA, phorbol myristic acid] | essentially all collected fluorescence | intermediate degree of reporter substrate phosphorylation | 25 ± 15 | nearly equal magnitude | small, but measurable amount of PKC activation | ~50 | 
CC(C)C[C@H](NC(=O)[C@H](CO)NC(=O)CNC(=O)[C@H](CCCCN)NC(=O)[C@H](CCCNC(=N)N)NC(=O)[C@H](C)NC(=O)[C@H](Cc1ccccc1)NC(=O)[C@H](CCCNC(=N)N)NC(=O)c1ccc2c(c1)C(=O)OC21c2ccc(O)cc2Oc2cc(O)ccc21)C(=O)N[C@@H](CCCNC(=N)N)C(=O)N[C@@H](CCC(N)=O)C(=O)N[C@@H](CCCCN)C(=O)N[C@@H](CC(N)=O)C(=O)N[C@H](C(=O)O)C(C)C [Fl-sPKC, Fl- Arg-Phe-Ala-Arg-Lys-Gly-Ser-Leu-Arg-Gln-Lys-Asn-Val] (5FAM-RFARKGSLRQKNV-OH) |  |  |  |  |  |  | about 50%
